Measurements: patent publication US9937144B2, “Treatment of drug abuse by preventing GAPDH nitrosylation” (THE JOHNS HOPKINS UNIVERSITY, priority 2013, dated 2018)

Experiments:
mice [1] = conditions: for cocaine's locomotor activation, MAO-B inhibitor combined with cocaine: i.p. for 5 days, cocaine 30 mg/kg i.p., total beam breaks, FIGS. 4G and 4H
Method: Open-Field Test. Open-field assessments were conducted as described (Levine et al., 2011; Maze et al., 2010) with brief modifications. The open field is a square arena with the dimensions 47 cm 3 47 cm with a 38.1 cm high clear plastic wall. Activity chambers were computer interfaced for data sampling. Sixteen infrared photobeams in each direction (16×16), 2.77 cm spacing, were used to record movement. The San Diego PAS software recorded the total number of beam breaks, as well as the beam break's location in the center and peripheral areas.
Mice were divided in 5 groups (n=10-12 each). Each group of mice were injected (i.p.) with either CGP3466B or the MAO-B inhibitors deprenyl, rasagiline, lazabemide, and pargyline for 5 days. Mice were allowed to acclimate to the apparatus for 1 hr. After 60 min, mice received saline or cocaine (30 mg/kg of cocaine i.p.), and were returned to the open-field apparatus for a subsequent 75 min in which their activity was recorded. All data was measured in 5 min intervals and aggregated as necessary. Beam breaks or distance traveled for 20 min following cocaine/saline intraperitoneal injection after the first stage of testing were used to determine immediate peak locomotor response from cocaine injection. In between testing of mice, the arena was wiped with Vimoba cleaning solution. Mice were tested at the same time every day in order to minimize any variation due to circadian rhythm changes.

[2] = target: T1, nitrosylation of GAPDH (SNO-GAPDH) (Mus musculus, UniProt P16858); experiment: S-nitrosylation biotin switch assay in cocaine-treated primary cortical neurons; type: cell-based; conditions: 16 hr, deprenyl 2 nM, FIG. 4A
T1 sequence (P16858 whole entry): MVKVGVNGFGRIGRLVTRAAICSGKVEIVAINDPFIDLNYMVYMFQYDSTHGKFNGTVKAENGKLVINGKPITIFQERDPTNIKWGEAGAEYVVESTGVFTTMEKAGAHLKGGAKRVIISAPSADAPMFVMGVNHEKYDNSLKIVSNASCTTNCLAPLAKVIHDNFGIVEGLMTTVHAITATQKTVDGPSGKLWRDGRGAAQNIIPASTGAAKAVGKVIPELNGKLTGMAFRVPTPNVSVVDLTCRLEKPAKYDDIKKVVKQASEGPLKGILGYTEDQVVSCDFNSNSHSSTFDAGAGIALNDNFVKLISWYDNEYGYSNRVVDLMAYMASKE
From the text: S-nitrosvlation biotin switch assay.

mice [3] = experiment: Rotarod performance; type: in vivo; conditions: for rotarod performance with cocaine: 5 days: deprenyl 0.25, rasagiline 2.5, pargyline 50, lazabemide 50 mg/kg, then cocaine 50 mg/kg, FIG. 9C
Method: Rotarod Performance. The test was performed as described previously (Xi et al., 2011) with minor modifications. A four-station mouse rotarod device (AccuScan Instruments) was used to study the effects of CGP3466B, Deprenyl, Rasagiline, Lazabemide and Pargyline on cocaine induced operant locomotion in mice. The speed of rotation of the rotarod was increased from 4 to 32 rpm over 7 min.
Mice were divided into 5 groups (n=8). For 5 days prior to testing mice received one dose of deprenyl (0.25 mg/kg), rasagiline (2.5 mg/kg), pargyline (50 mg/kg), lazabemide (50 mg/kg), or saline followed by a high dose of cocaine (50 mg/kg). Mice were placed on the rotarod at a starting speed of 4 rpm, and the speed of the rotarod was increased to 32 rpm over the course of 7 min. This was repeated for a total of three trials in a day, and the latency at which the mice fell off the rotarod was recorded. Mice were tested at the same time every day in order to minimize any variation due to circadian rhythm changes.

striatum = experiment: TUNEL assay of cell death in striatum induced by cocaine; type: in vivo, mice; conditions: for cocaine induced cell death in striatum: MAO-B inhibitors with cocaine, FIG. 9B
Method: (§1) TUNEL assay. Primary neurons were grown on coverslips with a density of […] per 12-well. Cells were treated with deprenyl (2 μM), rasagaline (10 μM), lazabemide (10 μM) or pargyline (10 μM) for 16 hr and cell death was measured by TUNEL assays using TUNEL enzyme (Roche) and TUNEL label (Roche) following the manufacturer's instructions (Kickstein et al., 2010). To analysis cell death induced by neurotoxic dose of cocaine, we used TUNEL apoptosis detection kit (Millipore) using manufacturer's protocol (Lathia et al., 2010). Positive nuclei were counted in 30 fields (×400) for each slide.

Body weight of mice = type: in vivo; conditions: FIG. 8B
[4] = target: T1, nitrosylation of GAPDH (SNO-GAPDH); experiment: S-nitrosylation biotin switch assay on striatum lysates of cocaine-injected mice
GAPDH binding to Siah1 = GAPDH binding to Siah1 (Homo sapiens, UniProt P04406); conditions: resultant of prevented GAPDH nitrosylation; cited from earlier work
Chain of GAPDH binding to Siah1 (P04406 whole entry): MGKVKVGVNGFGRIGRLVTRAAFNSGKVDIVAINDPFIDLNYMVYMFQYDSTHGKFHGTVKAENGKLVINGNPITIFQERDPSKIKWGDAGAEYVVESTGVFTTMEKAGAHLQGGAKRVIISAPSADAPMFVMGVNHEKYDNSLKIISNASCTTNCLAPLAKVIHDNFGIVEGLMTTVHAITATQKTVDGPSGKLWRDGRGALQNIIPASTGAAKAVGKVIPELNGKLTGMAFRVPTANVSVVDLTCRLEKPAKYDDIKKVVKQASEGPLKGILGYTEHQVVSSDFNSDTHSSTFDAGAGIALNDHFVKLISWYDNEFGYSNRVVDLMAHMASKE

monoamine oxidase = conditions: Hara et al., 2006; cited from earlier work
GAPDH nitrosylation [5] = target: GAPDH nitrosylation (Homo sapiens, UniProt P04406); conditions: cited from earlier work; for GAPDH nitrosylation in vitro: as reported earlier (Hara et al., 2006)
Chain of GAPDH nitrosylation (Homo sapiens, UniProt P04406) (P04406 whole entry): as above

GAPDH nitrosylation [6] = target: T2, GAPDH nitrosylation (Mus musculus, UniProt P16858); conditions: as reported earlier (Hara et al., 2006); cited from earlier work
T2 construct: in the brains of mice treated with the neurotoxic agent; host or cells: mouse brain
T2 sequence (P16858 whole entry): as the sequence (P16858 whole entry) above

mice [7] = experiment: Conditioned place preference; type: in vivo
Method: Conditioned Place Preference. The test was performed as described previously (Levine et al., 2011; Maze et al., 2010; Xi et al., 2011) with minor modifications. Two groups of wild-type mice were used to study the effect of CGP 3466B (0.15 mg/kg) on cocaine-(7 mg/kg) induced conditioned place preference or aversion. A three-chamber place preference apparatus was used. This apparatus consisted of two large side compartments and one small central compartment, which separated the large compartments. Two of the large compartments had different visual and tactile cues. One of the large compartments contained a green wire mesh floor. The second large compartment contained a cream-colored rubber floor. […]
Wild mice were divided into two groups. […] Experimental software (Any-Maze Video Tracking System v. 4.72) measured the amount of time each mouse spent in each of the three compartments.
For the next 10 days (days 2-11), mice entered the conditioning stage of testing with one session per day. […] On the probe trial day (24 hr after the last conditioning session), mice were given an injection of saline then were allowed to freely explore the three compartments for 15 min the time spent in each of the compartments was recorded by computer software. CPP score was calculated as time spent in cocaine chamber minus the time spent in saline/CGP3466B treated chamber.

p53, PUMA = experiment: p53 activation and PUMA induction in striatum after neurotoxic cocaine doses; type: in vivo, mice
Method: Sample Preparation from Cocaine-Injected Mice.
Chromatin immunoprecipitation (ChIP) assay.
Co-Immunoprecipitation. Striatum tissue were lysed in lysis buffer (50 mM Tris pH 7.4, 150 mM NaCl, 0.1% Chaps, 100 nM deferoxamine and 1 mM EDTA) and homogenized by passing through a 26-gauge needle. Crude lysates were cleared of insoluble debris by centrifugation at 14,000 g. IP buffer (50 mM Tris pH 7.4, 150 mM NaCl, 0.1% Chaps, 100 μM deferoxamine, 1 mM EDTA and 0.1 mg/ml BSA) was added to […] of cell lysates to bring samples to a total volume of 1 ml. Anti-Siah and anti-SUV39H1 antibody and 30 μl of protein G agarose were added and incubated on a rotator at 4° C. The protein G agarose was washed four times with lysis buffer and quenched with 30 μl of SDS sample buffer. Co-immunoprecipitates were resolved by SDS-PAGE and analyzed by western blotting with anti-GAPDH and anti-SUV39H1 antibodies.

[8] = test system: SUV39H1, H3K9 trimethylation, c-fos; experiment: Western blot/ChIP of striatum after behavioral-stimulant cocaine doses (SUV39H1, H3K9 trimethylation, c-fos)
GAPDH = GAPDH (Mus musculus, UniProt P16858); experiment: Nuclear translocation of GAPDH in striatum of cocaine-treated mice
Chain of GAPDH (P16858 whole entry): as above

primary cortical neurons = conditions: TUNEL, 16 hr; deprenyl 2 μM, rasagiline, lazabemide, pargyline 10 μM; FIG. 4B
Method: as §1

In the case of `C#CCN[C@@H]1CCc2ccccc21` [rasagiline], the “cocaine's locomotor activation, MAO-B inhibitor combined with cocaine” value (mice [1]) is reported as “greater locomotor stimulation than cocaine alone”, the “cocaine-induced nitrosylation of GAPDH in cortical cultures” value (“cocaine-induced nitrosylation of GAPDH” for short) [2] is reported as “do not prevent” and the “rotarod performance with cocaine” value (mice [3]) is reported as “do not improve”. For the same compound, the “cocaine induced cell death in striatum” value (striatum) was “do not rescue”.
For `C#CCN(C)CC1=Cc2ccccc2Oc2ccccc21` [CGP3466B, N-(dibenz(b,f)oxepin-10-ylmethyl)-N-methyl-N-prop-2-ynylamine], the “locomotor stimulation by cocaine” value (mice [1]; CGP3466B 0.15 mg/kg IP once a day for 5 days, cocaine on the fifth day, open field, FIG. 3H) was “substantially reduces”, the basal locomotor activity (mice [1]; CGP3466B 0.15 mg/kg, no cocaine) was “no effect” and the “central or peripheral movement” value (mice [1]; mouse, in vivo) was “no adverse effects”. For the same compound, the “locomotor stimulation in nNOS knockout mice treated with cocaine” value (mice [1]; nNOS knockout mice, FIG. 3I) was “does not further decrease”, the body weight (Body weight of mice) was “no adverse effects” and the “stimulation of GAPDH nitrosylation in striatum elicited by cocaine” value ([4]; 0.15 mg/kg CGP3466B, behavioral-stimulant doses of cocaine (5-30 mg/kg), FIG. 7A) was “almost completely blocks”. The “nitrosylation of GAPDH in the striatum elicited by higher doses of cocaine” value ([4]; cocaine 30-50 mg/kg daily for 5 days with or without CGP3466B, FIG. 5A) was “abolished”, the “GAPDH binding to Siah1” value (GAPDH binding to Siah1) was “inhibition” and the “monoamine oxidase inhibitory activity” value (monoamine oxidase) was “lack monoamine oxidase inhibitory activity”. For the same compound, the “GAPDH nitrosylation in vitro” value (GAPDH nitrosylation [5]) was “potently inhibits”, the “concentrations at which nitrosylation of GAPDH is prevented” value (GAPDH nitrosylation [5]) was “subnanomolar” and the “cocaine-induced nitrosylation of GAPDH” value [2] was “prevents”. The “GAPDH nitrosylation in the brains of mice treated with MPTP” value (GAPDH nitrosylation [6]) was “potently inhibits”, the “increase of latency for falling off the rod” value (mice [3]; co-treatment with CGP3466B, cocaine 50 mg/kg, FIG. 5G) was 2.5- to 3 fold and the “cocaine preference (conditioned place preference)” value (mice [7]; CGP3466B 0.15 mg/kg 2 hr before each conditioning injection, cocaine 7 mg/kg, FIG. 3J) was “reduced”. For the same compound, the “conditioned place preference, single dose only on the day of testing” value (mice [7]; mice conditioned in the absence of CGP3466B, FIG. 6D) was “failed to alter”, the “induction of PUMA level” value (p53, PUMA; FIG. 5E) was “blocks” and the “activation of p53” value (p53, PUMA; FIGS. 5C and 5D) was “blocks”. The “cocaine-elicited change of H3K9 trimethylation” value ([8]; FIG. 3E) was “prevented”, the “degradation of SUV39H1” value ([8]; behavioral-stimulant doses of cocaine, FIG. 3D) was “blocks” and the “stimulation of c-fos expression” value ([8]; behavioral-stimulant doses of cocaine, FIGS. 3F-3G) was “blocks”. The “cocaine-elicited nuclear translocation of GAPDH” value (GAPDH; behavioral-stimulant doses of cocaine, FIG. 3C) was “prevents”, the “nuclear translocation of GAPDH at higher doses of cocaine” value (GAPDH; cocaine 30-50 mg/kg daily for 5 days, FIG. 5B) was “prevented” and the “apoptosis (TUNEL) in striatum induced by cocaine” value (striatum; cocaine 30 and 50 mg/kg, chronic treatment with CGP3466B, FIG. 5F) was “markedly reduces”.
With `NCCNC(=O)c1ccc(Cl)cn1` [lazabemide] the “cocaine's locomotor activation, MAO-B inhibitor combined with cocaine” value (mice [1]) was “greater locomotor stimulation than cocaine alone”, the “cocaine-induced nitrosylation of GAPDH” value [2] was “do not prevent” and the “rotarod performance with cocaine” value (mice [3]) was “do not improve”. For the same compound, the “cocaine induced cell death in striatum” value (striatum) was “do not rescue”.
For `C#CCN(C)[C@H](C)Cc1ccccc1` [deprenyl, R-(−)-N-methyl-N-(prop-2-ynyl)-2-aminophenylpropane], the “cocaine's locomotor activation, MAO-B inhibitor combined with cocaine” value (mice [1]) is listed as “significantly decreases”, the “GAPDH nitrosylation in vitro” value (GAPDH nitrosylation [5]) is listed as “potently inhibits” and the “cell survival / cell death of primary cortical neurons” value (primary cortical neurons) is listed as “no effect”. For the same compound, the “cocaine-induced nitrosylation of GAPDH” value [2] was “prevents”, the “GAPDH nitrosylation in the brains of mice treated with MPTP” value (GAPDH nitrosylation [6]) was “potently inhibits” and the “rotarod performance with cocaine” value (mice [3]) was “do not improve”. The “cocaine induced cell death in striatum” value (striatum) was “do not rescue”.
With `C#CCN(C)Cc1ccccc1` [pargyline] the “cocaine's locomotor activation, MAO-B inhibitor combined with cocaine” value (mice [1]) was “greater locomotor stimulation than cocaine alone”, the “cocaine-induced nitrosylation of GAPDH” value [2] was “do not prevent” and the “rotarod performance with cocaine” value (mice [3]) was “do not improve”. The “cocaine induced cell death in striatum” value (striatum) was “do not rescue”.
